Measured values published in ChEMBL document CHEMBL3774308, “KATching-Up on Small Molecule Modulators of Lysine Acetyltransferases” (J Med Chem, 2016).

Experiments:
[1] = target: Histone acetyltransferase p300 (Homo sapiens, UniProt Q09472); test: Inhibition of human p300 expressed in competent escherichia coli BL21(DE3)-R3-pRARE2 cells by isothermal titration calorimetry
[2] = target: CREB-binding protein (Homo sapiens, UniProt Q92793); test: Inhibition of human CREBBP expressed in competent escherichia coli BL21(DE3)-R3-pRARE2 cells by isothermal titration calorimetry
Chain of CREB-binding protein (Q92793 whole entry): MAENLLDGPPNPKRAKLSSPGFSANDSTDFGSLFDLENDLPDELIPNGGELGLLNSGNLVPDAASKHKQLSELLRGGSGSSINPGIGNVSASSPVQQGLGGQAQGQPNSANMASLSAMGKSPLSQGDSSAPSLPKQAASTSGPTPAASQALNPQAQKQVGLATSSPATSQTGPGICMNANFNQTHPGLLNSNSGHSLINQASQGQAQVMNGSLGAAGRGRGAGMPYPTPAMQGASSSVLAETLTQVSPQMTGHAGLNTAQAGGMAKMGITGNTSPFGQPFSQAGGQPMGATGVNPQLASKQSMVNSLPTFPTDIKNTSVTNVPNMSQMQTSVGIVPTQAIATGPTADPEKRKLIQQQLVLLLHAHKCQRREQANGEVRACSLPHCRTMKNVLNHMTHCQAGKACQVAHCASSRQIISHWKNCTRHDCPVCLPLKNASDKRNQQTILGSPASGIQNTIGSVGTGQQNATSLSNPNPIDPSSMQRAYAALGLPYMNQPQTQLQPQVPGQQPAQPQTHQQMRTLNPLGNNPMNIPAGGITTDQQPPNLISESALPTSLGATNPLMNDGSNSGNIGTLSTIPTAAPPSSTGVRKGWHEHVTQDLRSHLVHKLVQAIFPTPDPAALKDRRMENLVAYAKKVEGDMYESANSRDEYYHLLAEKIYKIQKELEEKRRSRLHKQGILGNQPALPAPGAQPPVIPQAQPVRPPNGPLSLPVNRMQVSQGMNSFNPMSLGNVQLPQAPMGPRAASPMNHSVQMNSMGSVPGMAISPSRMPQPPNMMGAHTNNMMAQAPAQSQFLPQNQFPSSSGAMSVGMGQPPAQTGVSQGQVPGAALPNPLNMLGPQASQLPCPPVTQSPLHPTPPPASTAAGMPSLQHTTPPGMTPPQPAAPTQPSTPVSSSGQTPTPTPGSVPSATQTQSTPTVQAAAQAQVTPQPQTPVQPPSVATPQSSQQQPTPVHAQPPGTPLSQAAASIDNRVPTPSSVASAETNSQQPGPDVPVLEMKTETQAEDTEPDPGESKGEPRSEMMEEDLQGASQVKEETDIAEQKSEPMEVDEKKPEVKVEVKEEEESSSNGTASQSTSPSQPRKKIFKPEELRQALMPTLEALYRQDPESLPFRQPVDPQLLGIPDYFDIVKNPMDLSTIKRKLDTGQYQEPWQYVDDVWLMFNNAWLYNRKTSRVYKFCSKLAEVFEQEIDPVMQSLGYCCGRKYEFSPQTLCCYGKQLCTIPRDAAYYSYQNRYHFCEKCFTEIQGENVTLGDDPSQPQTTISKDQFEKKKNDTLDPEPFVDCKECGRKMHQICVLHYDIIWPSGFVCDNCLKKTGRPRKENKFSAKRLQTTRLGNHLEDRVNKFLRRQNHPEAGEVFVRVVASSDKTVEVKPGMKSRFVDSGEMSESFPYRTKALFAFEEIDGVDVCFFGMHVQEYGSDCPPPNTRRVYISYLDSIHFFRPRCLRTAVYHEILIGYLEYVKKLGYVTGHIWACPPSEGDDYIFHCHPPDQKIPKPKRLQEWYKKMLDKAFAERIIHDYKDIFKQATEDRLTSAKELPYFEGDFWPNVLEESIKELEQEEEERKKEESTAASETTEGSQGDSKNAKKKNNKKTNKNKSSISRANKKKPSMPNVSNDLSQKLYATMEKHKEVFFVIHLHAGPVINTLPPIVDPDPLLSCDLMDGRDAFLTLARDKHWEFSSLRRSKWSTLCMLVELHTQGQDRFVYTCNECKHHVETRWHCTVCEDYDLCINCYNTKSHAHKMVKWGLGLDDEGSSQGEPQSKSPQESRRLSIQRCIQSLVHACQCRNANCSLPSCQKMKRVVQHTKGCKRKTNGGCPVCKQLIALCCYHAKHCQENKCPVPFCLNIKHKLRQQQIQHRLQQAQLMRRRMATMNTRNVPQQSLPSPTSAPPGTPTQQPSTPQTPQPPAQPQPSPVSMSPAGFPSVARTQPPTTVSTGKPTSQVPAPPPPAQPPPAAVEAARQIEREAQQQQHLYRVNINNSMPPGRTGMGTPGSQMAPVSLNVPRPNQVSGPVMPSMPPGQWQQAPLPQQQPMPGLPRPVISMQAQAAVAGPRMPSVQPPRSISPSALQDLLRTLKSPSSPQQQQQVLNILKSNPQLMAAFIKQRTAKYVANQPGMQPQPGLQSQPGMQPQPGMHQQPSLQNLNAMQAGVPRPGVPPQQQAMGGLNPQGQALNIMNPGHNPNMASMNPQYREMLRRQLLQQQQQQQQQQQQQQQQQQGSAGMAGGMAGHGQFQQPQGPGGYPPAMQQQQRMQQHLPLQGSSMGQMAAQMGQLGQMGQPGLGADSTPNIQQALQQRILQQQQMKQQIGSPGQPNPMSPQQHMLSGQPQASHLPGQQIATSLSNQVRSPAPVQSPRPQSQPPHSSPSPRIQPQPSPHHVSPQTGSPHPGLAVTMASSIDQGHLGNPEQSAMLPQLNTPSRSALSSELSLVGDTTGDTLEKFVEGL

Chain of Histone acetyltransferase p300 (Q09472 whole entry): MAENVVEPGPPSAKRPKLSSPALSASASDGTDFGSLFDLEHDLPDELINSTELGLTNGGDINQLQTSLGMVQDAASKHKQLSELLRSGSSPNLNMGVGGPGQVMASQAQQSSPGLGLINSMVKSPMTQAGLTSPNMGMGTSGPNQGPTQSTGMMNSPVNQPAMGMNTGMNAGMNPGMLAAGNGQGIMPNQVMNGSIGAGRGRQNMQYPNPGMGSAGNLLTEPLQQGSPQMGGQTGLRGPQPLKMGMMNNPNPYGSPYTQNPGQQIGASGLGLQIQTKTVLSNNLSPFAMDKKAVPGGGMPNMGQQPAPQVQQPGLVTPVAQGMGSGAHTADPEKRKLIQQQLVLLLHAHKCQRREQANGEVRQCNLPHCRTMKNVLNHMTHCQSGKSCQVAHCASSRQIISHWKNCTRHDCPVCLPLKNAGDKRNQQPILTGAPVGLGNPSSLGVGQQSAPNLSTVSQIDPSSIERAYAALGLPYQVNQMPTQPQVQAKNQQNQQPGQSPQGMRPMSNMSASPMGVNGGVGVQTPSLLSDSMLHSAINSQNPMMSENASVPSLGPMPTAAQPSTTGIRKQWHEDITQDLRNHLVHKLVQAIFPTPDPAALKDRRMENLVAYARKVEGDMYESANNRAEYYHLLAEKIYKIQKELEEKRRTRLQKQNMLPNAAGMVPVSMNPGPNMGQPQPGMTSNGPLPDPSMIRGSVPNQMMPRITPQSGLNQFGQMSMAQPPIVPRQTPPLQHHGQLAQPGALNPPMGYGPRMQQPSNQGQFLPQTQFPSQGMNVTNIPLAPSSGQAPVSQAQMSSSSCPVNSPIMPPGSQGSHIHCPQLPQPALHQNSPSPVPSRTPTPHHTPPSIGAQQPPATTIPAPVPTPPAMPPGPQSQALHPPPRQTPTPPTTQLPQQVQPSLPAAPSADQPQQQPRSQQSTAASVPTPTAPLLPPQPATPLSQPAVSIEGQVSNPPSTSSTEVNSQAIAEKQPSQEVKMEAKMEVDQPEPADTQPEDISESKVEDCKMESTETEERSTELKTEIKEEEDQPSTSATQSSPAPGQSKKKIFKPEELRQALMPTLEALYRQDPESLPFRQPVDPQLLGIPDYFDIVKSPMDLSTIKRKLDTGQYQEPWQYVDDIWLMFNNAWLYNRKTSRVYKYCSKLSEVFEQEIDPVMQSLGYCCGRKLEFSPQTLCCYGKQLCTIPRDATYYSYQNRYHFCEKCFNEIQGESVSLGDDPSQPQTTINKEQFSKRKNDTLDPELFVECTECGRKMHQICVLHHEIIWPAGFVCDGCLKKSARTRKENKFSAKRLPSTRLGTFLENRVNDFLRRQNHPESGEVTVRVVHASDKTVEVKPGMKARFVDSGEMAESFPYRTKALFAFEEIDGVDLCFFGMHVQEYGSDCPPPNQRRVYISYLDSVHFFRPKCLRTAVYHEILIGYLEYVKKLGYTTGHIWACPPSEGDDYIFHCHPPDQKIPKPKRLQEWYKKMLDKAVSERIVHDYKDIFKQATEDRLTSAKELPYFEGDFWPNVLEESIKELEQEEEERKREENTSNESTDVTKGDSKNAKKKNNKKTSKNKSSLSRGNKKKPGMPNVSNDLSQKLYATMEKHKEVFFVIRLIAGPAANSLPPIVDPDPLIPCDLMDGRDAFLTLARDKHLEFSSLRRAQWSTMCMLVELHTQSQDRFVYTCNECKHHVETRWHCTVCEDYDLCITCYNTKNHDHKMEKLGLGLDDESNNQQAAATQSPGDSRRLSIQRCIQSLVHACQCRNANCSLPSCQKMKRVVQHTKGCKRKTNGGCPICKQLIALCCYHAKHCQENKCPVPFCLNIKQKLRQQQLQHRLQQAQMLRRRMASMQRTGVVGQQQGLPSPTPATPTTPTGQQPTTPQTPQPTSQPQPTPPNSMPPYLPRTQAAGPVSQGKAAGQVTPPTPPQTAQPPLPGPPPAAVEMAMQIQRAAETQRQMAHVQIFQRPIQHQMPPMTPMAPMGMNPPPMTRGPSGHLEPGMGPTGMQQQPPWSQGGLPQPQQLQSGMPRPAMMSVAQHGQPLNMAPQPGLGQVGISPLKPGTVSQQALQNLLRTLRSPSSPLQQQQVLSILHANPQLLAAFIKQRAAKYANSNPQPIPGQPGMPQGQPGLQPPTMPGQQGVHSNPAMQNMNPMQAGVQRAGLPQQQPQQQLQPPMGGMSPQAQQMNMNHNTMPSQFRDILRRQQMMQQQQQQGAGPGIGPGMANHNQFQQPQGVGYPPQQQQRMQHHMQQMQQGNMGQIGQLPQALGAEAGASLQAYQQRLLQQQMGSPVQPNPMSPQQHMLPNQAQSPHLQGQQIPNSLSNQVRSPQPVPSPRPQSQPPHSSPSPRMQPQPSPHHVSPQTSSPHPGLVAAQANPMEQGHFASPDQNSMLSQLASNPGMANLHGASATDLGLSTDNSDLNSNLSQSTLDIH

CCC(=O)N1CCOc2c(cc(-c3ccc(OC)c(OC)c3)cc2OC[C@H]2CCCN(C)C2)C1
Kd [1]: 167 nM | Kd [2]: 151 nM
